Type in all cases: physicochemical
Series [1] is described as follows: Slurry conversion / water activity / slurry competition at RT, solids analysed by XRPD. The method, then: Slurry conversion experiments were conducted at RT in different solvent systems. Approximately 20 mg of starting material was suspended in 0.1 mL of solvent in HPLC vials. After the suspension was stirred magnetically for 48 hours at RT, the remaining solids were isolated for XRPD analysis.

A short description of series [2]: Solid-form stability on heating, vacuum dehydration and re-exposure to ambient RH (XRPD). As for the experimental part:
CV-8972 starting material is shown in blue; CV-8972 following incubation at 90° C. for 8 hours is shown in red; and CV-8972 following incubation at 65° C. in a vacuum for 2 hours is shown in purple. To see if the small DSC endotherm at 85.3° C. corresponds to polymorphic phase transition or dehydration, XRPD was performed on Form A after storing it in an oven at 90° C. for 8 hours.
Data from starting material is shown in blue; data following incubation for 2 hours in vacuum oven are shown in red; and data from heated material that was exposed to ambient relative humidity is shown in green. To monitor Form A in its dehydrated state, it was placed in a vacuum oven at 65° C. for 2 hours followed by its XRPD analysis.

A short description of series [3]: Dynamic vapor sorption (DVS) with XRPD before and after. The text has this:
FIG. 8 is a dynamic vapor sorption isotherm plot. Cycle sorption is shown in red; cycle 1 desorption is shown in blue; and cycle 2 sorption is shown in green.
Pre-DVS data is shown in red; and post-DVS data is shown in blue.

A short description of series [4]: Approximate solubility of starting material at RT by stepwise solvent addition. Conditions: thermodynamic from solid. As for the experimental part: Starting with Form A, polymorph screening experiments were set up under 34 conditions using methods of slurry conversion, liquid vapor diffusion, slow evaporation, and slow cooling. The approximate solubility of starting material was determined at room temperature (RT). Accurately weighed samples of approximately 2 mg weight were added into a 3-mL glass vial. Solvents were then added step wise (50/50/200/700 μL) into the vials until the solids were dissolved or a total volume of 1 mL was reached.

Experimental findings from patent US12065410B2, “Crystal forms of 2-[4-[(2,3,4-trimethoxyphenyl)methyl]piperazin-1-yl]ethyl pyridine-3-carboxylate” (IMBRIA PHARMACEUTICALS, INC., priority 2020, dated 2024) are described below.

The term solubility denotes how much of the substance goes into solution per volume.

In brackets after ≈: the same amount, converted by molar mass. Where only a bound is given, the exact number is not on record here.

In the case of `COc1ccc(CN2CCN(CCOC(=O)c3cccnc3)CC2)c(OC)c1OC` [Form E, 2-[4-[(2,3,4-trimethoxyphenyl)methyl]piperazin-1-yl]ethyl pyridine-3-carboxylate], in series [1], the “Solid form change in slurry competition between Forms D and E” value was “converted to Form A”. For the same compound, in series [1] (all conditions tested), the “Solid form change in water activity analysis” value is reported as “converts to Form A”. The “Solid form change on exposure to ambient temperature and humidity” value in series [2] (ambient RH, rehydration) is listed as “partial conversion to Form A”.
Take `COc1ccc(CN2CCN(CCOC(=O)c3cccnc3)CC2)c(OC)c1OC` [CV-8972, 2-[4-[(2,3,4-trimethoxyphenyl)methyl]piperazin-1-yl]ethyl pyridine-3-carboxylate]: the “Water uptake (DVS)” value in series [3] (25° C. and 80% relative humidity (RH)) is less than 0.2%. In addition, in series [3] (beyond 80% RH, possible deliquescence), the “Mass change (DVS)” value was “drastic increase in the mass change”. Moreover, the “XRPD of the sample after DVS” value in series [3] (post-DVS versus pre-DVS) was “mostly similar to the starting material”.
As for `COc1ccc(CN2CCN(CCOC(=O)c3cccnc3)CC2)c(OC)c1OC` [Form A, 2-[4-[(2,3,4-trimethoxyphenyl)methyl]piperazin-1-yl]ethyl pyridine-3-carboxylate], the solubility was less than 1800 µg/mL in series [4] (CHCl3, organic solvent or mixture, CHCI3, RT); less than 1700 µg/mL in series [4] (organic solvent or mixture, 1,4-Dioxane, RT); less than 1500 µg/mL in series [4] (organic solvent or mixture, ACN, RT); less than 2000 µg/mL in series [4] (organic solvent or mixture, Acetone, RT); less than 1500 µg/mL in series [4] (organic solvent or mixture, CPME, RT); less than 2200 µg/mL in series [4] (organic solvent or mixture, DCM, RT). Also, the solubility is 1800 to 6000 µg/mL (≈ 4.33 to 14.4 mM) in series [4] (organic solvent or mixture, DMF, RT); 5000 to 15000 µg/mL (≈ 12 to 36.1 mM) in series [4] (organic solvent or mixture, DMSO, RT); less than 1800 µg/mL in series [4] (organic solvent or mixture, EtOAc, RT); less than 1700 µg/mL in series [4] (organic solvent or mixture, EtOH, RT); less than 2300 µg/mL in series [4] (organic solvent or mixture, IPA, RT); less than 1700 µg/mL in series [4] (organic solvent or mixture, IPAc, RT). Further, the solubility in series [4] (organic solvent or mixture, MEK, RT) was less than 2000 µg/mL; in series [4] (organic solvent or mixture, MIBK, RT), less than 2000 µg/mL; in series [4] (organic solvent or mixture, MeOH, RT), more than 46000 µg/mL; in series [4] (organic solvent or mixture, NMP, RT), 6700 to 20000 µg/mL (≈ 16.1 to 48.1 mM); in series [4] (organic solvent or mixture, THF, RT), less than 2200 µg/mL; in series [4] (organic solvent or mixture, Toluene, RT), less than 2300 µg/mL. Also, the solubility was less than 1900 µg/mL in series [4] (organic solvent or mixture, n-Heptane, RT) and more than 44000 µg/mL in series [4] (water, H2O, RT). Moreover, in series [3] (25° C., up to 80% RH), the “Hygroscopicity (DVS)” value was “non hygroscopic”. Also, the “Solid Form after slurry conversion” value in series [1] (Acetone, stirred 48 hours at RT) is “Form A”; in series [1] (Acetone/H2O (aw = 0.2, 941/59), 48 hours at RT), “Form A”; in series [1] (Acetone/H2O (aw = 0.4, 857/143), 48 hours at RT), “Form A”; in series [1] (Acetone/H2O (aw = 0.6, 726/274), 48 hours at RT), “Form A”; in series [1] (Acetone/H2O (aw = 0.8, 492/508), 48 hours at RT), “Form A”; in series [1] (H2O, 48 hours at RT), “Form A”. In addition, the “Relative stability among polymorphs” value in series [1] (ambient temperature and relative humidity) is “most stable”. Moreover, in series [2] (65° C. vacuum for 2 hours), the “Solid form after vacuum oven (XRPD)” value is recorded as “Form E”. In series [2] (90° C. for 8 hours), the “Solid form after oven storage (XRPD)” value is listed as “converts to Form E”.
